Data from US20080261821A1, “Mechanism-Based Crosslinkers” (THE REGENTS OF TE UNIVERSITY OF CALIFORNIA, priority 2004, published 2008).
The star is where a group is joined. Biotin = O=C1N[C@H]2[C@H](CS[C@H]2CCCCC(=O)*)N1; Ahx = NCCCCCC(=O)O

What was measured:
[1] = molecular target: T1, His 6-tagged human Akt1 (Homo sapiens, UniProt P31749); test: Crosslinking reactions with AKT1 (SDS-PAGE, streptavidin-HRP blot); type: biochemical; details: for crosslinking of peptide to AKT1 (formation of the peptide-AKT1 complex): peptide incubated with AKT1 in the presence of dialdehyde crosslinker 2, FIG. 2A
T1 construct: purchased Calbiochem
Protocol: His 6-tagged human Akt1 (10 ng), 1 μM peptide 3 or 4, and 20 µM crosslinker 2 were incubated in 30 μL of 25 mM HEPES (pH=7.5), 150 mM NaCl, 2 mM MgCl2, 20 μM BME for 20 min at rt. After 20 min, 6 μL of 6× loading buffer was added to quench the reactions. The sample mixtures (10 μL) were resolved by 8-16% SDS-PAGE, transferred to nitrocellulose, and the membrane was probed with streptavidin-HRP.
To evaluate dialdehyde 2 as a mechanism-based crosslinker, a set of peptide substrate derivatives with and without an engineered cysteine (biotin-ZRPRTSSF-OH 3, fluorescein-ZZRPRTSSF-OH 4, biotin-ZRPRTSCF-OH 5 and fluorescein-ZZRPRTSCF—OH 6) were incubated with the kinase, AKT1 (Alessi et al., FEBS Lett. 399: 333-338 (1996)). […] As expected, the peptide-AKT1 covalent complex runs at a slightly higher molecular weight than unmodified AKT1 on SDS-PAGE.

[2] = molecular target: T2, AKT kinase (Homo sapiens, UniProt P31749); test: Kinase cell lysate crosslinking (avidin-agarose pull-down, anti-AKT blot); type: biochemical; details: 100 ng AKT kinase, 2 μg HeLa cell lysate; for anti-AKT signal after avidin-agarose pull-down of the biotinylated substrate: 1 μM substrate, 100 μM crosslinker 2, 90 minutes
T2 construct: host or cells: added to HeLa cell lysate
Protocol: Kinase cell lysate crosslinking details: 1 μM of Akt substrate (Biotin-PEG-RPRTSCF-OH) and 100 ng of AKT kinase was added to 2 μg of HeLa cell lysate. 100 μM of the crosslinker 2 was added to cell lysate and the reaction was allowed to proceed for 90 minutes. The lysate were poured over avidin-agarose beads and the beads were washed with wash buffer. The bound protein was eluted from the agarose beads with loading buffer and then subjected to SDS-PAGE. The gel was transferred to nitrocellulose and probed with anti-AKT. […] As a control, the non-cysteine containing AKT substrate (Biotin-PEG-RPRTSSF-OH) was used in the crosslinking reaction described above. No signal was observed.

T2 sequence (P31749 whole entry): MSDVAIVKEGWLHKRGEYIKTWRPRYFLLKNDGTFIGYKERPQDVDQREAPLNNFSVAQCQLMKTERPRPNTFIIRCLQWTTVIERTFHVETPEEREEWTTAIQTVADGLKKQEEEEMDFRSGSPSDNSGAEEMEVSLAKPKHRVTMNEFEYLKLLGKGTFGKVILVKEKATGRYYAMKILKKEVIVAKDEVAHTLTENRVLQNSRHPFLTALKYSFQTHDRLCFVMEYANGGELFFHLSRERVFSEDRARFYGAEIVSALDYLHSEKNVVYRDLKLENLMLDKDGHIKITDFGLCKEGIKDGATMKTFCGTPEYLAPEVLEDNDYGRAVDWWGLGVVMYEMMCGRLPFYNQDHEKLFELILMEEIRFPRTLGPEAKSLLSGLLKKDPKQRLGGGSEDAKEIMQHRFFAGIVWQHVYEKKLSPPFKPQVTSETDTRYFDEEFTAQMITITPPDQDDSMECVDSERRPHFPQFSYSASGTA
T1 sequence (P31749 whole entry): as above

Compound	crosslinking of peptide to AKT1 (formation of the peptide-AKT1 complex) [1]	anti-AKT signal after avidin-agarose pull-down of the biotinylated substrate [2]	also measured
Fluorescein-Ahx-Ahx-Arg-Pro-Arg-Thr-Ser-Cys-Phe-OH ({fluorescein-Ahx-Ahx}-RPRTSCF-OH) [peptide 6]	identical results		
Biotin-PEG-RPRTSCF-OH		positive signal	
{Biotin-Ahx}-RPRTSSF-OH [peptide 3, reference compound]	no detectable crosslinking		
Biotin-PEG-RPRTSSF-OH [reference compound]		No signal	
Nc1ncnc2c1ncn2C1OC(COC(=O)c2ccc(C=O)c(C=O)c2)C(O)C1O (stereo not shown) [dialdehyde 2]			crosslinking of AKT1 and peptide by the crosslinker (formation of the peptide-AKT1 complex) ([1]; dialdehyde 2 incubated with cysteine-containing peptide 5 and AKT1, FIG. 2A lane 2): rapid formation of the peptide-AKT1 complex was observed; anti-AKT signal after crosslinking in cell lysate by the crosslinker ([2]; 100 μM crosslinker 2 with 1 μM Biotin-PEG-RPRTSCF-OH, 90 minutes): positive signal
{Biotin-Ahx}-RPRTSCF-OH [peptide 5]	rapid formation of the peptide-AKT1 complex was observed		
